Laboratory results: ChEMBL document CHEMBL1201862, “PubChem BioAssay data set” (2004)
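Each compound was tested at five concentrations against cells in 96-well plates for 48 hours. Abbreviation: GI50, concentration required for 50% inhibition of growth.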 Activity calls are given as the source filed them. No stated cut-off is given here; in the data, active = GI50 up to about 1.1 µM and inactive = higher.

How the values were obtained:
Assay in all cases: NCI tumour cell line growth inhibition, 48 h
MOLT-4 = system: MOLT-4
M14 = system: M14
SF-268 = system: SF-268
BT-549 = system: BT-549
SW-620 = system: SW-620
KM12 = system: KM12
HL-60 = system: HL-60
NCI-H23 = system: NCI-H23
COLO 205 = system: COLO 205
Malme-3M = system: Malme-3M
786-0 = system: 786-0
SK-MEL-2 = system: SK-MEL-2
OVCAR-5 = system: OVCAR-5
SF-295 = system: SF-295
CCRF-CEM = system: CCRF-CEM
T47D = system: T47D
A498 = system: A498
A549 = system: A549
SK-MEL-28 = system: SK-MEL-28

Compound | GI50 (MOLT-4) | GI50 (M14) | GI50 (SF-268) | GI50 (BT-549) | GI50 (SW-620) | GI50 (KM12) | GI50 (HL-60) | GI50 (NCI-H23) | GI50 (COLO 205) | GI50 (Malme-3M) | GI50 (786-0) | GI50 (SK-MEL-2) | GI50 (OVCAR-5) | GI50 (SF-295) | GI50 (CCRF-CEM) | GI50 (T47D) | GI50 (A498) | GI50 (A549) | GI50 (SK-MEL-28)
NCc1ccccc1.O=C(O)NCc1ccccc1 | 18.8 µM (inactive) | 33.9 µM (inactive) | 39.7 µM (inactive) | 29.5 µM (inactive) | 34.8 µM (inactive) | 26.2 µM (inactive) | 26.7 µM (inactive) | 27.5 µM (inactive) | 19.3 µM (inactive) | 27.4 µM (inactive) | 36.3 µM (inactive) | 8.91 µM (inactive) | 30.1 µM (inactive) | 31.2 µM (inactive) | 19.4 µM (inactive) | 23.9 µM (inactive) | 29 µM (inactive) | 34.9 µM (inactive) | 38.2 µM (inactive)
CN(C)c1ccc(Cc2cc3c(O)ccc(O)c3cc(Cc3ccc(N(C)C)cc3)c2=O)cc1 | 2.92 µM (inactive) | 17.5 µM (inactive) | 29.6 µM (inactive) | 13.7 µM (inactive) | 13.6 µM (inactive) | 18.6 µM (inactive) | 3.04 µM (inactive) | 22.4 µM (inactive) | 16.1 µM (inactive) | 20.3 µM (inactive) | 16 µM (inactive) | 36.6 µM (inactive) | > 43.9 µM (inactive) | 34.4 µM (inactive) | 2.96 µM (inactive) | 4.09 µM (inactive) | 46.1 µM (inactive) | 30.5 µM (inactive) | 18.9 µM (inactive)
NCCN1C(=O)CN=C(c2ccc(Cl)cc2)c2cc(Cl)ccc21 | 0.46 µM (active) | 16.1 µM (inactive) | 14.4 µM (inactive) | 16 µM (inactive) | 15.7 µM (inactive) | 17.2 µM (inactive) | 16 µM (inactive) | 18.1 µM (inactive) | 19.3 µM (inactive) | 14.2 µM (inactive) | 15.9 µM (inactive) | 16.3 µM (inactive) | 15.7 µM (inactive) | 32.8 µM (inactive) | 15.5 µM (inactive) | 21.8 µM (inactive) | 19.1 µM (inactive) | 17.1 µM (inactive) | > 100 µM (inactive)
COc1ccccc1N1C(=O)CSC1c1cc(OC)c(OC)c(OC)c1 (stereo not drawn) | 27.9 µM (inactive) | > 88.5 µM (inactive) | > 46.1 µM (inactive) | > 34 µM (inactive) | 27.5 µM (inactive) | 21.3 µM (inactive) | 20.5 µM (inactive) | > 100 µM (inactive) | > 100 µM (inactive) | > 22.3 µM (inactive) | 18.8 µM (inactive) | 55.7 µM (inactive) | > 100 µM (inactive) | > 30.4 µM (inactive) | 13.2 µM (inactive) | 12.4 µM (inactive) | > 100 µM (inactive) | > 100 µM (inactive) | > 89.9 µM (inactive)
O=C(C/C(=N/O)C(=O)NC1=C(Cl)C(=O)c2ccccc2C1=O)CC(c1ccccc1)c1c(O)c2ccccc2oc1=O (stereo not drawn) | 17.9 µM (inactive) | 4.59 µM (inactive) | 7.35 µM (inactive) | 16.4 µM (inactive) | 6.58 µM (inactive) | 3.5 µM (inactive) | 2.39 µM (inactive) | 3.63 µM (inactive) | 13.4 µM (inactive) | 2.08 µM (inactive) | 10.4 µM (inactive) | 10.6 µM (inactive) | 17.7 µM (inactive) | 7.93 µM (inactive) | 4.56 µM (inactive) | 12.1 µM (inactive) | 46.6 µM (inactive) | 5.69 µM (inactive) | 7.43 µM (inactive)
Cc1ccc(CC(=O)Nc2ccc(NC(=O)CNC(=O)/C=C/c3ccc(-c4ccccc4)cc3)cc2C(=O)c2ccccc2)cc1 | 3.5 µM (inactive) | 4.81 µM (inactive) | 2.45 µM (inactive) | 10.9 µM (inactive) | 4.75 µM (inactive) | 3.56 µM (inactive) | 7.45 µM (inactive) | 2.06 µM (inactive) | 6.93 µM (inactive) | 2.99 µM (inactive) | 2.28 µM (inactive) | 13.9 µM (inactive) | 4.48 µM (inactive) | 2.22 µM (inactive) | 4.79 µM (inactive) | 1.76 µM (inactive) | 0.989 µM (active) | 2.03 µM (inactive) | 11.7 µM (inactive)
CC(=O)NC1C(OCc2ccccc2)OC(CO)C(O)C1OCC(=O)NC(C)C(=O)NC(CCC(=O)NCCCCCC(=O)Nc1ccc2c(c1)CN1C(=O)c3ccccc3C1=N2)C(N)=O (stereo not drawn) | 42.1 µM (inactive) | > 100 µM (inactive) | 63.8 µM (inactive) | > 100 µM (inactive) | 43.5 µM (inactive) | 34.5 µM (inactive) | > 100 µM (inactive) | 67.5 µM (inactive) | > 100 µM (inactive) | 78.3 µM (inactive) | 82.8 µM (inactive) | > 100 µM (inactive) | > 100 µM (inactive) | 75.7 µM (inactive) | 32.7 µM (inactive) | > 100 µM (inactive) | > 100 µM (inactive) | 72.8 µM (inactive) | > 100 µM (inactive)
